Measurements from patent US7335352B1, “Method of identifying agents that inhibit quorum sensing activity of gamma-proteobacteria” (priority 2003, dated 2008).
“Also recorded” adds a separate entry of the source. Like-named read-outs stand apart in the source and are kept apart here.

Key:
P. aeruginosa PAO1 [1] = format: cell-based, Pseudomonas aeruginosa; details: for Use as sole source of energy or nitrogen: MES 5.5 media; for Utilization as an energy source: pH 5.5; for Yield: substrate as energy source
Procedure: (§1) Media and growth conditions. LB, amended with antibiotics when appropriate, was used for growth and maintenance of all strains unless otherwise stated. For the 3OC12HSL-dependent enrichment of strain PAI-A and other growth experiments performed on this strain, modified “MES 5.5” defined-medium was used to enrich and study Variovorax paradoxus VAI-C (21). These modifications to the medium included buffering with 5 mM 3-(N-morpholino)-propanesulfonic acid (MOPS) at pH 7.2 and the addition of sodium sulfate (14 g·liter^−1) and magnesium chloride (4 g·liter^−1). For growth experiments with P. aeruginosa, “MES 5.5” defined medium was used as described previously (21) with the exception that it contained sodium sulfate, not sulfite, as S-source, a typographical error in the reported recipe. Unless otherwise noted, the medium was buffered to a pH of 5.5 with 5 mM 2-(N-morpholino)-ethanesulfonic acid (MES). Ammonium-free “MES 5.5” basal medium was used to examine the utilization of AHLs and HSL as potential nitrogen sources. 100 mM stock solutions of AHLs were prepared by dissolving AHLs in ethyl acetate that had been acidified with glacial acetic acid (0.01% v/v), and stocks were stored at −20° C. AHLs used in these studies were: N-3-oxododecanoyl-L-homoserine lactone (3OC12HSL; Quorum Sciences Inc., Iowa City Iowa), N-3-oxohexanoyl-L-homoserine lactone (3OC6HSL; Sigma), and from Fluka: N-3-butanoyl-DL-homoserine lactone (C4HSL), N-3-hexanoyl-DL-homoserine lactone (C6HSL), N-3-heptanoyl-DL-homoserine lactone (C7HSL), N-3-octanoyl-DL-homoserine lactone (C8HSL), N-3-[…], N-3-dodecanoyl-DL-homoserine lactone (C12HSL), N-3-tetradecanoyl-DL-homoserine lactone (C14HSL). For growth experiments, the AHL was dispensed into sterile tubes, the ethyl acetate was removed by evaporation under a stream of sterile air, and sterile medium was added to the dried AHL that remained. Stocks of L-HSL (Sigma) were prepared just prior to their use from well-desiccated reagent stored at −20° C. […] Cells were grown in 5 ml of medium in 18-mm tubes with shaking at 37° C. unless otherwise noted. AHL molecules are stable for approximately 30 days under the conditions of low pH in our defined medium (9, 34). Unless noted, all other reagents were of reagent grade.
(§2) Growth studies. Optical density measurements were performed at 600 nm using a Spectronic 20 spectrophotometer. […] When care was taken to vortex tubes gently, the changes in optical density reflecting growth could be monitored accurately. Molar growth yields were determined in the defined media containing the indicated substrate at a final concentration of 1 or 2 mM. For both Pseudomonas PAI-A and P. aeruginosa PAO1, factors for converting optical density to cell dry mass were determined by growing cells in media containing succinate as the energy source and NH4Cl as the nitrogen source, washing the cells with 50 mM ammonium acetate buffer (pH 5.5), and drying cell samples to a constant weight. Such determinations were made in quadruplicate.

Pseudomonas strain PAI-A [2] = format: cell-based
Procedure: as §1, §2

PvdQ AHL acylase = biological target: T1, PvdQ AHL acylase (Pseudomonas aeruginosa, UniProt Q9I194); assay: AHL degradation by resting E. coli cells expressing recombinant PvdQ (LC/APCI-MS); format: cell-based, P. aeruginosa; details: for HSL-releasing degradation by E. coli expressing recombinant PvdQ: resting cells OD600 1.2, MOPS pH 7.2, 18° C., 10 μM 3OC12HSL; for Product accumulation in PvdQ-expressing E. coli suspensions: incubated with 10 μM 3OC12HSL
T1 construct: The deduced coding region for PvdQ (Gene PA2385; www.pseudomonas.com) was amplified from the genomic DNA; expressed in transfected cells; host or cells: E. coli BL21PRO carrying pPvdQ-PROTet (pPROTet.E133-derived, aTc-inducible)
T1 sequence (Q9I194 24-193): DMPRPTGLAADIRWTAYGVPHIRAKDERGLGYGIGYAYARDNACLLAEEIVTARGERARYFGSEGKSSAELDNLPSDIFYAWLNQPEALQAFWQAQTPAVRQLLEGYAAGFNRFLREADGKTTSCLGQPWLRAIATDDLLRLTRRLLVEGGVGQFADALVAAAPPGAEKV
T1 sequence (Q9I194 217-762): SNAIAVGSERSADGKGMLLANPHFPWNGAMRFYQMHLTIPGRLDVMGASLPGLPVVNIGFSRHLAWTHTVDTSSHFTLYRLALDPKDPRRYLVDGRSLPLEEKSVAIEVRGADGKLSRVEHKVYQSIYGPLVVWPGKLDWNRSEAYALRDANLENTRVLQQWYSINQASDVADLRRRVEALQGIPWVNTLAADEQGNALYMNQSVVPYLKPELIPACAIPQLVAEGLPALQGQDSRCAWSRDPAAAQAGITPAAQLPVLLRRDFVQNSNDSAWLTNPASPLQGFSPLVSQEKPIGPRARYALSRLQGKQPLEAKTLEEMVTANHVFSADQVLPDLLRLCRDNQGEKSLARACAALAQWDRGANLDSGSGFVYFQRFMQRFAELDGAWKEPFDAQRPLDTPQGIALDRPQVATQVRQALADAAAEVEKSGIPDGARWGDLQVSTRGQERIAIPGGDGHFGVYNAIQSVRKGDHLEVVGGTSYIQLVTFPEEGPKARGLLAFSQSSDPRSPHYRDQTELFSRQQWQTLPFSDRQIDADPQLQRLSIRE
Description: (§3) Analysis of cell-free culture and reaction fluids. […] Dilutions were made using “MES 5.5” medium.
Cloning and expression of pvdQ (PA2385) encoding a putative P. aeruginosa AHL acylase. Genomic DNA was isolated from P. aeruginosa PAO1 using the DNeasy™ tissue kit (QIAGEN) and used as a template for PCR. The deduced coding region for PvdQ (Gene PA2385; www.pseudomonas.com) was amplified from the genomic DNA using the following primers: 5′-[…]-3′ (SEQ ID NO:6) and 5′-[…]-3′ (SEQ ID NO:7; bold print indicates HindIII and NotI restriction sites, respectively), cloned into the appropriately digested expression vector, pPROTet.E133 (Clontech), and transformed into E. coli BL21PRO. Recombinant AHL acylase activity was examined as follows. After growth in LB medium containing spectinomycin (50 μg ml^−1) and chloramphenicol (34 μg ml^−1), and after gene induction by the addition of anhydrotetracycline (aTc, 100 ng ml^−1) at 18° C., cells were pelleted and resuspended to a final optical density of 1.2 in MOPS buffered media (pH 7.2) containing 10 μM 3OC12HSL. Recombinant cells that had not been induced with aTc were used as a negative control. Reaction mixtures were incubated at 18° C.; 150 μl samples were removed at 0, 15, 30, and 60 min and analyzed for AHL disappearance and product appearance via LC/APCI-MS (see above).

Pseudomonas strain PAI-A [3] = assay: TLC of reaction fluids of dense PAI-A cell suspensions incubated with AHL; format: cell-based; details: dense PAI-A cell suspension; 25 mM C12HSL
Description: as §3

P. aeruginosa PAO1 [4] = details: dense PAO1 cell suspension; 25 mM C12HSL
Description: Analysis of cell-free culture and reaction fluids. For the initial characterization of the intermediates in AHL degradation, a TLC method was used (16).

P. aeruginosa PA14 = assay: Growth of P. aeruginosa PA14 on 3OC12HSL as sole energy source; format: cell-based, Pseudomonas aeruginosa; details: defined ammonia-replete media, pH 5.5 and 7.2, naive cells after lag
Procedure: Media and growth conditions. LB, amended with antibiotics when appropriate, was used for growth and maintenance of all strains unless otherwise stated. For the 3OC12HSL-dependent enrichment of strain PAI-A and other growth experiments performed on this strain, modified “MES 5.5” defined-medium was used to enrich and study Variovorax paradoxus VAI-C (21). These modifications to the medium included buffering with 5 mM 3-(N-morpholino)-propanesulfonic acid (MOPS) at pH 7.2 and the addition of sodium sulfate (14 g·liter^−1) and magnesium chloride (4 g·liter^−1). For growth experiments with P. aeruginosa, “MES 5.5” defined medium was used as described previously (21) with the exception that it contained sodium sulfate, not sulfite, as S-source, a typographical error in the reported recipe. Unless otherwise noted, the medium was buffered to a pH of 5.5 with 5 mM 2-(N-morpholino)-ethanesulfonic acid (MES). Ammonium-free “MES 5.5” basal medium was used to examine the utilization of AHLs and HSL as potential nitrogen sources. 100 mM stock solutions of AHLs were prepared by dissolving AHLs in ethyl acetate that had been acidified with glacial acetic acid (0.01% v/v), and stocks were stored at −20° C. […]

[5] = P. aeruginosa PAO1, minimal salts media pH 5.5
[6] = strain PAI-A, minimal salts media pH 7.2

| Structure (SMILES) | Doubling time (P. aeruginosa PAO1 [1]; [5]) | Yield (P. aeruginosa PAO1 [1]; [5]) [g/mol] | Yield (Pseudomonas strain PAI-A [2]; [6]) | HSL-releasing degradation by E. coli expressing recombinant PvdQ (PvdQ AHL acylase) | other results |
| --- | --- | --- | --- | --- | --- |
| N[C@@H](CCO)C(=O)O [homoserine] | – | – | – | – | Use as sole source of energy or nitrogen (P. aeruginosa PAO1 [1]; P. aeruginosa PAO1): did not use; Utilization as an energy source (P. aeruginosa PAO1 [1]; P. aeruginosa PAO1): did not grow |
| CCCCCCCCCCCC(=O)NC1CCOC1=O (racemic) [C12-DL-HSL, N-3-dodecanoyl-DL-homoserine lactone] | 14.9 ± 7.5 h | 84 ± 7 | 80 ± 18 g/mol | catalyzed the HSL-releasing degradation | Doubling time (Pseudomonas strain PAI-A [2]; [6]): 16.5 ± 3 h; AHL-dependent release of ninhydrin-reactive materials (HSL, homoserine) by TLC (Pseudomonas strain PAI-A [3]): AHL-dependent release of ninhydrin-reactive materials; AHL-dependent release of ninhydrin-reactive materials (HSL, homoserine) by TLC (P. aeruginosa PAO1 [4]): AHL-dependent release of ninhydrin-reactive materials |
| CCCC(=O)NC1CCOC1=O (racemic) [C4HSL, N-3-butanoyl-DL-homoserine lactone] | – | – | – | – | Degradation of short chain AHL given as co-substrate (P. aeruginosa PAO1 [1]; PAO-1, 1 mM C4HSL in 3OC12HSL-containing media): did not degrade detectable amounts; Degradation of short chain AHL given as co-substrate (Pseudomonas strain PAI-A [2]; PAI-A, 1 mM C4HSL in 3OC12HSL-containing media): did not degrade detectable amounts |
| CCn1cc(C(=O)O)c(=O)c2ccc(C)nc21 [nalidixate] | – | – | – | – | Growth in media containing the agent (Pseudomonas strain PAI-A [2]; PAI-A, 30 μg nalidixate·ml^−1): did not grow |
| N[C@H]1CCOC1=O [HSL, homoserine lactone] | – | – | – | – | Use as sole source of energy or nitrogen (P. aeruginosa PAO1 [1]; P. aeruginosa PAO1): did not use; Utilization as an energy source (P. aeruginosa PAO1 [1]; P. aeruginosa PAO1): Neither strain PAI-A nor PAO1 used; also recorded: did not grow; Utilization as an energy source (Pseudomonas strain PAI-A [2]; strain PAI-A, pH 7.2): Neither strain PAI-A nor PAO1 used; Product accumulation in PvdQ-expressing E. coli suspensions (PvdQ AHL acylase): accumulation of stoichiometric amounts |
| CCCCCCCCCCCC(=O)O [Dodecanoate] | – | 141 ± 4 | 155 ± 8.4 g/mol | – | – |
| CCCCCCCCCC(=O)NC1CCOC1=O (racemic) [C10-DL-HSL, N-3-decanoyl-DL-homoserine lactone] | 14.0 ± 3.8 h | 97 ± 3 | – | catalyzed the HSL-releasing degradation | Yield (qualitative) (Pseudomonas strain PAI-A [2]; [6]): +, ND^ |
| CCCCCCCCCC(=O)CC(=O)NC(CCO)C(=O)O (centres unmarked) [3OC12-homoserine] | – | – | – | – | Product accumulation in PvdQ-expressing E. coli suspensions (PvdQ AHL acylase): No 3OC12-homoserine accumulation was observed |
| CCCCCCCCCCCCCC(=O)NC1CCOC1=O (racemic) [C14-DL-HSL, N-3-tetradecanoyl-DL-homoserine lactone] | 21.0 ± 5.3 h | 84 ± 12 | – | catalyzed the HSL-releasing degradation | Yield (qualitative) (Pseudomonas strain PAI-A [2]; [6]): +, ND^ |
| CCCCCCCCCC(=O)O [Decanoate] | – | 130 ± 3 | 126 ± .5 g/mol | – | – |
| CCCCCCCCCC(=O)CC(=O)N[C@H]1CCOC1=O [3OC12-L-HSL, N-3-oxododecanoyl-L-homoserine lactone] | 25.0 ± 3 h | 76 ± 10 | 84 ± .2 g/mol | degraded 3OC12HSL; also recorded: Within an hour, the AHL disappeared | Doubling time (P. aeruginosa PAO1 [1]; PAO1, defined ammonia-replete media, pH 5.5 and 7.2, naive cells after lag): 264 to 600 h; Doubling time (Pseudomonas strain PAI-A [2]; [6]): 25.0 ± 3.5 h; Doubling time (P. aeruginosa PA14): 11 to 25 days |
| CCCCCCCCCCCCCC(=O)O [Tetradecanoate] | – | 177 ± 16 | 198 ± 3 g/mol | – | – |
| O=C(O)CCC(=O)O [Succinate] | 0.6 ± .09 h | 43 ± 3 | – | – | Doubling time (Pseudomonas strain PAI-A [2]): 0.583 h; Doubling time (Pseudomonas strain PAI-A [2]; pH 7.2): 0.6 ± .02 h; Yield (Pseudomonas strain PAI-A [2]; pH 7.2): 49 ± 3.8 g/mol |
| CCCCCCCC(=O)NC1CCOC1=O (racemic) [C8-DL-HSL, N-3-octanoyl-DL-homoserine lactone] | 15.0 ± 2 h | 95 ± 4 | – | catalyzed the HSL-releasing degradation | Yield (qualitative) (Pseudomonas strain PAI-A [2]; [6]): +, ND^b |
